Test results from patent US5945508A, “Substance P treatment for immunostimulation” (priority 1997, dated 1999).

What was measured:
[1] = tested on: LP-BM5 murine leukemia retrovirus; assay: Spleen changes and total cell numbers, LP-BM5 mouse AIDS model; assay type: in vivo, C57BL6 mice
Experimental: C57BL6 mice, average weight of 25-30 grams, were infected with the LP-BM5 murine leukemia retrovirus to simulate the human AIDS virus. […] The mice were divided into two groups; LP-BM5 virus only and LP-BM5 virus+substance P aerosol therapy at 1 μM concentration. The mice were killed at 4 and 8 weeks postinoculation.

[2] = tested on: lymphocyte subpopulations; assay: Flow cytometric analyses (FACS); assay type: in vivo, C57B16 mice
Experimental: (§1) At 24 hours after the last exposure, the animals were sacrificed and the effects of exposure on the immune system examined. Immune organs (spleen, thymus, blood, lymph nodes and bone marrow) were recovered and analyzed for effects on organ weight, total cell numbers, immune cell populations (by differentials), and lymphocyte subpopulations (by flow cytometry). Assays were also performed to examine the effects of exposure on immune function. […] Similar effects on immune cell subpopulations were also observed in lymph nodes. In the thymus it appeared that the immature CD4^+ CD8^+ cells were differentially lost due to exposure. […] However, these effects are prevented or ameliorated by treatment of the animals with Substance P.
One- and two-color FACS analyses are performed using a Becton-Dickinson FACStar Plus flow cytometer. Cells are stained with the indicated monoclonal antibodies according to standard procedures (Harris et al., id). Cells alone and cells reacted with conjugated isotype control, irrelevant mAbs are used as controls. Data is presented as the percentage of cells staining positive for each individual mAb.

[3] = tested on: immune system; assay: Immunotoxicology of exposure to jet fuel JP-8; assay type: in vivo, C57B16 mice; conditions: JP-8 exposed animals treated with Substance P
Experimental: as §1

[4] = tested on: spleen, thymus and bone marrow cells; assay: JP-8 jet fuel exposed mice, cell numbers (FIGS. 1-3); assay type: in vivo, C57BL6 mice; conditions: 1 micromolar aerosol 15 minutes after each exposure
Source text: Since mice are nose-breathers, they were exposed to the aerosol/vapor mixture via nose-only presentation while they were held in individual loading tubes. The tubes were nose-fitted to receiving adaptors that originated from the common anodized aluminum exposure chamber (volume 0.3 m^3, IN-TOX, Albuquerque, N. Mex.). Noses were positioned in the exposure ports to minimize systemic absorption that might occur during total body exposure or through the process of self-grooming after exposure. The mice were rotated on a daily basis through the 24-adaptor positions of the exposure chamber. This was done to minimize proximity to the jet fuel source as a variable in exposure concentration or composition. Passive entrainment of the jet fuel aerosol/vapor mix and room air through the IN-TOX chamber was conducted by vacuum (15 liters/min). The vacuum was applied to the exposure chamber on the side opposite the fuel source. Animal exposure ports not in use were sealed during the exposure period. Longitudinal controls were sham-exposed in a manner identical to those receiving jet fuel, except that only room air was introduced into the exposure chamber. The exposure chamber was thoroughly cleaned prior to the longitudinal control group's exposure.
The substance P aerosol therapy was performed at the completion of the JP-8 jet fuel exposure. The nebulizer was modified with clean hoses and a new sonication crucible. […] The substance P aerosol therapy was conducted for the same seven day period over a total time period of nine days as the JP-8 jet fuel exposure regimen.

[5] = tested on: murine melanoma B16 cancer cells; assay: B16 melanoma lung tumor colonies after tail vein injection; assay type: in vivo, mice; conditions: for mean number of tumor colonies observed in both lungs: 1×10^4 B16 cells/mouse, 4 weeks post-injection; for reduction in tumors: versus controls
Source text: The mice were infected with syngeneic murine melanoma B16 cancer cells by tail vein injection. The dose was 1×10^4 B16 tumor cells/mouse. […] The second group of mice was given their substance P aerosol therapy starting one week after the injection of the B16 cells. The aerosol therapy lasted for one week. Both groups of mice and their corresponding controls (injection with B16 cells and no substance P therapy) were killed at 4 weeks post-injection with B16 cells. The data is presented as the mean number of tumor colonies observed in both lungs.

[6] = JP-8 1000 mg/m^3 + SP, nSP (1 nM), CP or RP

For Substance P [SP], which “total cell numbers (spleen) versus LP-BM5 group” value ([1]; 4 weeks after LP-BM5 infection, SP aerosol 1 μM) is on record?
The value was “not accompanied by an increase in total cell numbers”.

What about the “changes in the mouse spleens” value ([1]; LP-BM5 mouse model, substance P aerosol therapy) of the same substance?
Its value is “significant changes in the mouse spleens”.

And the “BM CD3 positive cells” value ([2]; JP-8 250 mg/m^3 + SP)?
The value was 13%.

And the “BM CD4 positive cells” value ([2]; JP-8 250 mg/m^3 + SP)?
Its value is 10%.

What about the “BM CD8 positive cells” value ([2]; JP-8 250 mg/m^3 + SP) of the same substance?
The value was 3%.

And the “BM CD45 positive cells” value ([2]; JP-8 250 mg/m^3 + SP)?
The value was 48%.

What about the “BM MAC1 positive cells” value ([2]; JP-8 250 mg/m^3 + SP) of the same substance?
Its value is 10%.

What about the “LN CD3 positive cells” value ([2]; JP-8 250 mg/m^3 + SP) of the same substance?
The value was 85%.

And the “LN CD4 positive cells” value ([2]; JP-8 250 mg/m^3 + SP)?
Its value is 48%.

What about the “LN CD8 positive cells” value ([2]; JP-8 250 mg/m^3 + SP) of the same substance?
Its value is 12%.

What about the “LN CD45 positive cells” value ([2]; JP-8 250 mg/m^3 + SP) of the same substance?
The value was 13%.

And the “LN MAC1 positive cells” value ([2]; JP-8 250 mg/m^3 + SP)?
The value was 1%.

What about the “PBL CD3 positive cells” value ([2]; JP-8 250 mg/m^3 + SP) of the same substance?
Its value is 59%.

What about the “PBL CD4 positive cells” value ([2]; JP-8 250 mg/m^3 + SP) of the same substance?
The value was 15%.

What about the “PBL CD8 positive cells” value ([2]; JP-8 250 mg/m^3 + SP) of the same substance?
The value was 6%.

What about the “PBL CD45 positive cells” value ([2]; JP-8 250 mg/m^3 + SP) of the same substance?
The value was 16%.

What about the “PBL MAC1 positive cells” value ([2]; JP-8 250 mg/m^3 + SP) of the same substance?
The value was 1%.

And the “Spleen CD3 positive cells” value ([2]; JP-8 250 mg/m^3 + SP)?
Its value is 62%.

What about the “Spleen CD4 positive cells” value ([2]; JP-8 250 mg/m^3 + SP) of the same substance?
Its value is 27%.

What about the “Spleen CD8 positive cells” value ([2]; JP-8 250 mg/m^3 + SP) of the same substance?
The value was 3%.

And the “Spleen CD45 positive cells” value ([2]; JP-8 250 mg/m^3 + SP)?
Its value is 21%.

What about the “Spleen MAC1 positive cells” value ([2]; JP-8 250 mg/m^3 + SP) of the same substance?
Its value is 1%.

And the “Thymus CD3 positive cells” value ([2]; JP-8 250 mg/m^3 + SP)?
Its value is 24%.

And the “Thymus DN cells” value ([2]; JP-8 250 mg/m^3 + SP)?
Its value is 5%.

What about the “Thymus DP cells” value ([2]; JP-8 250 mg/m^3 + SP) of the same substance?
Its value is 68%.

And the “Thymus SP4 cells” value ([2]; JP-8 250 mg/m^3 + SP)?
Its value is 22%.

And the “Thymus SP8 cells” value ([2]; JP-8 250 mg/m^3 + SP)?
The value was 5%.

And the “BM CD3 positive cells” value [2, 6]?
The value was 14%.

And the “BM CD4 positive cells” value [2, 6]?
Its value is 9%.

And the “BM CD8 positive cells” value [2, 6]?
The value was 2%.

What about the “BM CD45 positive cells” value [2, 6] of the same substance?
The value was 31%.

And the “BM MAC1 positive cells” value [2, 6]?
The value was 26%.

What about the “LN CD3 positive cells” value [2, 6] of the same substance?
Its value is 86%.

What about the “LN CD4 positive cells” value [2, 6] of the same substance?
The value was 29%.

And the “LN CD8 positive cells” value [2, 6]?
The value was 11%.

What about the “LN CD45 positive cells” value [2, 6] of the same substance?
Its value is 22%.

What about the “LN MAC1 positive cells” value [2, 6] of the same substance?
Its value is 0%.

And the “PBL CD3 positive cells” value [2, 6]?
Its value is 61%.

What about the “PBL CD4 positive cells” value [2, 6] of the same substance?
The value was 23%.

What about the “PBL CD8 positive cells” value [2, 6] of the same substance?
The value was 10%.

And the “PBL CD45 positive cells” value [2, 6]?
Its value is 22%.

And the “PBL MAC1 positive cells” value [2, 6]?
The value was 3%.

What about the “Spleen CD3 positive cells” value [2, 6] of the same substance?
Its value is 34%.

What about the “Spleen CD4 positive cells” value [2, 6] of the same substance?
The value was 18%.

What about the “Spleen CD8 positive cells” value [2, 6] of the same substance?
The value was 10%.

What about the “Spleen CD45 positive cells” value [2, 6] of the same substance?
The value was 20%.

And the “Spleen MAC1 positive cells” value [2, 6]?
The value was 5%.

What about the “Thymus CD3 positive cells” value [2, 6] of the same substance?
Its value is 20%.

What about the “Thymus DN cells” value [2, 6] of the same substance?
The value was 10%.

And the “Thymus DP cells” value [2, 6]?
The value was 65%.

What about the “Thymus SP4 cells” value [2, 6] of the same substance?
The value was 16%.

What about the “Thymus SP8 cells” value [2, 6] of the same substance?
Its value is 6%.

What about the “BM CD3 positive cells” value ([2]; JP-8 2500 mg/m^3 + SP) of the same substance?
The value was 6%.

What about the “BM CD4 positive cells” value ([2]; JP-8 2500 mg/m^3 + SP) of the same substance?
Its value is 3%.

What about the “BM CD8 positive cells” value ([2]; JP-8 2500 mg/m^3 + SP) of the same substance?
Its value is 6%.

What about the “BM CD45 positive cells” value ([2]; JP-8 2500 mg/m^3 + SP) of the same substance?
The value was 24%.

And the “BM MAC1 positive cells” value ([2]; JP-8 2500 mg/m^3 + SP)?
The value was 34%.

And the “Spleen CD3 positive cells” value ([2]; JP-8 2500 mg/m^3 + SP)?
The value was 38%.

And the “Spleen CD4 positive cells” value ([2]; JP-8 2500 mg/m^3 + SP)?
The value was 26%.

And the “Spleen CD8 positive cells” value ([2]; JP-8 2500 mg/m^3 + SP)?
Its value is 14%.

What about the “Spleen CD45 positive cells” value ([2]; JP-8 2500 mg/m^3 + SP) of the same substance?
Its value is 31%.

What about the “Spleen MAC1 positive cells” value ([2]; JP-8 2500 mg/m^3 + SP) of the same substance?
The value was 3%.

What about the “Thymus CD3 positive cells” value ([2]; JP-8 2500 mg/m^3 + SP) of the same substance?
The value was 16%.

What about the “Thymus DN cells” value ([2]; JP-8 2500 mg/m^3 + SP) of the same substance?
Its value is 19%.

And the “Thymus DP cells” value ([2]; JP-8 2500 mg/m^3 + SP)?
Its value is 64%.

What about the “Thymus SP4 cells” value ([2]; JP-8 2500 mg/m^3 + SP) of the same substance?
Its value is 15%.

And the “Thymus SP8 cells” value ([2]; JP-8 2500 mg/m^3 + SP)?
The value was 5%.

What about the “BM CD3 positive cells” value ([2]; dose 0 (no JP-8) + SP or CP) of the same substance?
The value was 12%.

What about the “BM CD4 positive cells” value ([2]; dose 0 (no JP-8) + SP or CP) of the same substance?
Its value is 11%.

And the “BM CD8 positive cells” value ([2]; dose 0 (no JP-8) + SP or CP)?
The value was 1%.

What about the “BM CD45 positive cells” value ([2]; dose 0 (no JP-8) + SP or CP) of the same substance?
Its value is 48%.

And the “Spleen CD3 positive cells” value ([2]; dose 0 (no JP-8) + SP or CP)?
Its value is 42%.

What about the “Spleen CD4 positive cells” value ([2]; dose 0 (no JP-8) + SP or CP) of the same substance?
Its value is 26%.

And the “Spleen CD8 positive cells” value ([2]; dose 0 (no JP-8) + SP or CP)?
Its value is 11%.

What about the “Spleen CD45 positive cells” value ([2]; dose 0 (no JP-8) + SP or CP) of the same substance?
The value was 23%.

What about the “Spleen MAC1 positive cells” value ([2]; dose 0 (no JP-8) + SP or CP) of the same substance?
Its value is 1%.

What about the “Thymus CD3 positive cells” value ([2]; dose 0 (no JP-8) + SP or CP) of the same substance?
Its value is 10%.

And the “Thymus DN cells” value ([2]; dose 0 (no JP-8) + SP or CP)?
Its value is 7%.

And the “Thymus DP cells” value ([2]; dose 0 (no JP-8) + SP or CP)?
The value was 84%.

And the “Thymus SP4 cells” value ([2]; dose 0 (no JP-8) + SP or CP)?
Its value is 6%.

And the “Thymus SP8 cells” value ([2]; dose 0 (no JP-8) + SP or CP)?
Its value is 2%.

What about the “reversal of effects of JP-8 exposure on all measured parameters” value [3] of the same substance?
The value was “invariably reversed the effects on all measured parameters of JP-8 exposure to almost normal levels”.

What about the “effect on spleen cell number (FIG. 1)” value ([4]; JP-8 500 or 2500 mg/m^3 7 days) of the same substance?
The value was “totally reverse the effect of the jet fuel on the spleen cell number”.

What about the “effect on bone marrow cells (FIG. 3)” value ([4]; JP-8 exposed mice) of the same substance?
The value was “augments the stimulation substantially”.

And the “effect on thymus cell number (FIG. 2)” value ([4]; JP-8 exposed mice)?
The value was “substantially reverses the effect on cell number”.

What about the “mean number of tumor colonies observed in both lungs” value ([5]; 1 μM SP aerosol 15 min/day 7 days starting immediately (next day)) of the same substance?
Its value is 39.

What about the “mean number of tumor colonies observed in both lungs” value ([5]; SP aerosol for one week starting one week after injection) of the same substance?
The value was 1.

And the reduction in tumors ([5]; therapy starting immediately after B16 cells injection)?
Its reduction in tumors is 62.9%.

And the reduction in tumors ([5]; therapy starting one week after B16 cells injection)?
The reduction in tumors was 97.0%.
